For assay [1], the target named is T1, XtTPC3 (TPC3 from Xenopus tropicalis) (Xenopus tropicalis, UniProt A0A6I8S6D1, R187Q/D511C).
T1 construct: gene LOC100495031; full-length cDNA in pGEMHE, Xenopus laevis oocytes (cRNA); pCXN2 in HEK293T for gating charges; homodimer
T1 sequence (A0A6I8S6D1 1-779 R187Q/D511C): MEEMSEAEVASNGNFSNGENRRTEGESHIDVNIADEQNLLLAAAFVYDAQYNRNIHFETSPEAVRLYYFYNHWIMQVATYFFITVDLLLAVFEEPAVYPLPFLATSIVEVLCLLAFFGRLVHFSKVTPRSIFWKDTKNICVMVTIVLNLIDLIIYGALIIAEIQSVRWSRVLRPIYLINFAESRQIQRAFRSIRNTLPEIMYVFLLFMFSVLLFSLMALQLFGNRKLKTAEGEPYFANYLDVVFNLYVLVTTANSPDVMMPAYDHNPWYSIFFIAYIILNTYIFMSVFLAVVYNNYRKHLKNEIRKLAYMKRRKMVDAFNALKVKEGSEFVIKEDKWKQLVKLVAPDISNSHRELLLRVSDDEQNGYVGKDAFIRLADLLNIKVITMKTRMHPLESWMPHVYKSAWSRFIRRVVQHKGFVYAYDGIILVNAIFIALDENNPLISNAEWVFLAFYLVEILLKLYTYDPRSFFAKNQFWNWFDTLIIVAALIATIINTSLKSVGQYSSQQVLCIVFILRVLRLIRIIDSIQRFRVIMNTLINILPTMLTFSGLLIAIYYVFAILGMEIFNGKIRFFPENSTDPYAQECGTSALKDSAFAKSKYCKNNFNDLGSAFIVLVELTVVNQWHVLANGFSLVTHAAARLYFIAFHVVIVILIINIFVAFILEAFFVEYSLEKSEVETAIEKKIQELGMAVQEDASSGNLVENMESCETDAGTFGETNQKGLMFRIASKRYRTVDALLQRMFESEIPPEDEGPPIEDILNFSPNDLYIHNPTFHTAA
Put plainly: two-electrode voltage clamp, Cys-accessibility (activation rate). The note with it: covalent at introduced Cys511; 0.5 mM MTSES in ND-96, pH 7.4, room temperature; +135 mV pulses; PI(3,4)P2 present (after long depolarization); Xenopus oocytes. The class given is cell-based. Background: In two-electrode clamp one electrode senses voltage and the other passes current.

Assay [2] addresses T2, XtTPC3 (TPC3 from Xenopus tropicalis) (Xenopus tropicalis, UniProt A0A6I8S6D1, D511C).
T2 construct: gene LOC100495031; full-length cDNA in pGEMHE, Xenopus laevis oocytes (cRNA); pCXN2 in HEK293T for gating charges; homodimer
T2 sequence (A0A6I8S6D1 1-779 D511C): T1 sequence (A0A6I8S6D1 1-779 R187Q/D511C) with Q187R
The assay is described as above. Format: cell-based. Particulars: covalent at introduced Cys511; 0.5 mM MTSES in ND-96, pH 7.4, room temperature; +135 mV pulses; PI(3,4)P2 present (after long depolarization); Xenopus oocytes.

Changes are numbered by the printed parent chain.

Turning to `CS(=O)(=O)SCCS(=O)(=O)O` [MTSES], the MTSES-modification rate stood at 0.011 ± 0.005 s⁻¹ in assay [1] and 0.043 ± 0.014 s⁻¹ in assay [2].

Values taken from paper PMC8665364, “Phosphoinositide regulates dynamic movement of the S4 voltage sensor in the second repeat in two-pore channel 3” (The Journal of Biological Chemistry, 2021).
